Data on 86 molecules can be found in a melting point compilation (Tetko et al.; mined from patent text by program, amines drawn as free bases though some values may be those of a salt).

Structures are written as SMILES.

A word on the melting point: it is the temperature of the solid-liquid transition. With `CC(C)OC(=O)N1CCC(c2nc3cc(-c4ccc(-n5cnnn5)cc4F)ccc3o2)CC1`, the melting point was 168 to 171 °C.
The figure for `CN1CCN(Cc2ccc(NC(=O)c3ccc(Cl)c(C#Cc4ccc(NC5CCC5)nn4)c3)cc2C(F)(F)F)CC1` is 132 to 133 °C; for `O=C(Nc1ccc(Cl)nc1)C1=NN(c2ccc(Cl)cc2)C(c2ccc(F)cc2)C1` (stereo unspecified) it is 191 to 193 °C; for `O=C(O)C1=Cc2cc(C(F)(F)C(F)(F)F)ccc2OC1C(F)(F)F` (stereo unspecified) it is 162 to 165 °C.
Next, `Cc1nc(-c2ccccc2)nc(N2CCCC2C(=O)N2CC(C)NC(C)C2)c1C` (stereo unspecified): 160 to 162 °C; `Cc1ccc(NC(=O)N2CCN(CCc3ccc(-c4cccc(N)n4)cc3)CC2)cc1C`: 122 to 125 °C; `NS(=O)(=O)c1ccc(-n2nc(C(F)(F)F)cc2-c2ccc(Cl)cc2)cc1F`: 140 to 141 °C.
Next, `CC1=NC(NC(=O)Nc2cccc(C)c2)C(=O)N(CC(=O)N2CCN(CCO)CC2)c2c(C)cccc21` (stereo unspecified): 222 to 224 °C; `COC(=O)c1cc2c3c(cc([N+](=O)[O-])c2[nH]1)N(C(=O)c1cc2cc(OC)c(OC)c(OC)c2[nH]1)CC3CCl` (stereo unspecified): 246 to 248 °C; `C1=Nc2c(cnc3ccccc23)OC12CCCCC2`: 164 to 165 °C.
For `CN(C)CCCNC(=O)c1ccc(-c2nnc(CSCCCCOc3ccccc3)o2)cc1`, the melting point is 87 to 93 °C.
The figure for `CCCCNC(=O)Nc1ccc(-c2ccncc2)c(C)n1` is 164 to 165 °C; for `CCN(C(=O)OC(C)(C)C)C1CC=C(c2c[nH]c3ccc([N+](=O)[O-])cc23)CC1` (stereo unspecified) it is 217 to 219 °C; for `O=S1(=O)N=CN(C2CC2)c2ccc(F)c(Cl)c21` it is 260 to 263 °C.
Turning to `CC(C)NC(=O)c1cc(N(C)C)cc(Oc2cccc(C(F)(F)F)c2)n1`, the melting point fell in the range of 108 to 110 °C.
`COc1ccc(C2=C(c3ccc(C=CC(=O)O)cc3)c3ccc(OC)cc3CC2)cc1` yielded a melting point of 206 °C.
The molecule `CC(c1cccc2c1C(=O)NS2(=O)=O)[Si](C)(C)C` (stereo unspecified) returned a melting point of 123 to 125 °C.
`CN1CC2Cc3ccc(Cl)cc3C(C)(O)C2C1` (stereo unspecified) came in with a melting point of 125 to 130 °C.
Consider `Cc1cccc(C)c1N1CC(C)N(c2c(C)cccc2C)C1=NCC(=O)O` (stereo unspecified), for which the melting point fell in the range of 307 to 310 °C.
`CS(=O)CCNC(=O)c1cccc(-c2ccc3c(c2)C(c2ccc(Cl)cc2Cl)CC3)c1` (stereo unspecified) returned a melting point of 112 to 113 °C.
In turn, `CCCCC(=O)N1CCN(C(=O)Nc2ccccc2CCc2cc(C(C)(C)C)c(O)c(C(C)(C)C)c2)CC1` displayed a melting point of 126 to 128 °C.
`CC(=O)OCCn1nc(O)c2[nH]c3cc(Cl)ccc3c(=O)c2c1=O` showed a melting point of 307 to 309 °C.
The figure for `CCc1cc2c(ccc(=O)n2Cc2ccc(-c3ccccc3C(=O)O)cc2)c(CC)n1` is 238 to 240 °C.
Next, `CCOC(=O)COc1ccc(OCc2ccccc2)cc1C(Nc1ccc(C(N)=S)cc1)C(=O)OCC` (racemic): 166 °C; `CC1(c2cc(-c3cccc(CC4SC(N5CCOCC5)=NC4=O)c3)ccc2O)CCCCC1` (stereo unspecified): 98 to 99 °C.
The figure for `CCCCCCCc1ccc(C(=O)Nc2ccc(C(=O)NN=C3C(=O)Nc4ccc(I)cc43)cc2)cc1` is 306 °C.
Take `CCCCCCCCCc1ccc(CCCC(N)(CO)CCO)cc1` (stereo unspecified): the melting point was in the range of 71 to 73 °C.
In the case of `COc1cc(F)ccc1-c1ccc(S(=O)(=O)N2c3ccccc3CC2C(=O)NCc2ccccc2N)cc1` (stereo unspecified), the melting point was 92 to 97 °C.
The figure for `COC(=O)C[C@@](O)(CCc1ccc(O)cc1)C(C)C` is 89 to 91 °C.
Next, `Cc1ccc(OCc2c(F)cccc2Cl)c(N)n1`: 108 to 109 °C; `COc1cc(C(=O)O)ccc1Cc1cccc2ccc(NC(=O)CC3CCCC3)cc12`: 248 to 250 °C; `CC(C)NC(=N)NC(=N)NOCCCOc1ccc(Cl)cc1`: 98 to 100 °C.
`O=C1c2cc(Cl)c(Cl)cc2C(O)N1CCCl` (stereo unspecified): the melting point fell in the range of 147 to 149 °C.
`Cn1cc(-c2ccccc2)c(=O)c(-c2ccccc2C(F)(F)F)c1` came in with a melting point of 168 to 171 °C.
The figure for `CCOC(=O)CCCNC(=O)Cn1c(-c2cccc(Cl)c2)nc2cccnc21` is 127 to 129 °C; for `N=c1sc2cc(OC(F)(F)F)ccc2n1CCS(=O)C1CCN(Cc2ccccc2)CC1` (stereo unspecified) it is 97 °C; for `N#Cc1ccccc1-c1ccc2[nH]ncc2c1` it is 163 to 170 °C.
For `Cc1cc(Nc2ccnc(Nc3ccc(S(=O)(=O)N(C)C4CCN(Cc5cncs5)CC4)cc3)n2)ccc1F`, the melting point is 196 to 197 °C.
The figure for `CNC(=O)CN(c1ccc(Cl)cc1N(C)c1ccccc1)S(=O)(=O)c1ccc(OC)c(OC)c1` is 149 °C.
The figure for `OCC1OC(n2cnc3c2N=CNCC3O)C(O)C1O` (stereo unspecified) is 178 to 183 °C; for `c1ccc(C2(Oc3cnccn3)CCNCC2)cc1` it is 107 to 108 °C; for `CNc1c(NCCSCc2ccc(CN(C)C)o2)c(=O)c1=O` it is 176 to 178 °C.
The figure for `Cc1ncc([N+](=O)[O-])n1CCN1C(=O)C2c3cccc4cccc(c34)C2C1=O` (stereo unspecified) is 183 to 185 °C; for `COCCNC(=O)c1cc(F)cc(-c2cccc3cc(Cc4cccc(C(F)(F)F)c4)sc23)c1` it is 103 to 104 °C.
Consider `Cc1c(NC(=O)c2ccc(OCc3ccccc3)cc2)ccc2cc(CN3CCCC3)cnc12`, for which the melting point lay within 177 to 178 °C.
The molecule `c1ccc(C2=NC(c3ccccc3)C3=C(N2)c2nc(-c4ccccc4)cc(-c4ccccc4)c2CC3)cc1` (stereo unspecified) returned a melting point of 142 to 144 °C.
Next, `O=C(CCl)NCc1cc2c(c(Br)c1O)CCCC2=O`: 201 to 203 °C; `COC(=O)c1cccc(C(=O)c2cn(CC(=O)N(C)CCc3ccccc3)c3ccc(OCc4ccccc4)cc23)c1`: 224 to 230 °C; `CN1C(=O)C(c2cccc(OCC3CC3)c2)(c2cnn(CC(F)(F)F)c2)N=C1N` (stereo unspecified): 78 to 80 °C.
Next, `CC(C)(C)Sc1c(CC(C)(C)C(=O)O)n(Cc2ccc(Cl)cc2)c2ccc(OCc3ccc4cccnc4n3)cc12`: 122 °C; `CO/C(=C\C=C\c1cc2cc(Cl)c(Cl)cc2[nH]1)C(=O)NC1CC(C)(C)N(C)C(C)(C)C1`: 212 °C; `CCOC(=O)N1CCN(c2ccncc2N)CC1`: 141 to 142 °C.
`C=CCNc1nc(C2C(=O)Nc3ccc(Br)cc32)c2cn(CCC)nc2n1` (stereo unspecified) came in with a melting point of 322 to 326 °C.
Next, `Cc1oc2cc(C3CC(=O)N(C4CC4)C(=O)C3)ccc2c1C`: 180 to 182 °C; `CCN1c2ncc(CCCc3ccccc3)cc2C(=O)N(C)c2cccnc21`: 100 to 102 °C.
Turning to `Cc1cccc(C(=O)N2CC2C#N)n1` (stereo unspecified), the melting point was in the range of 120 to 122 °C.
`CCNC(=O)OC1=C(c2ccccc2)Oc2ccccc2-n2cccc21`: the melting point lay in the range of 74 to 75 °C.
The figure for `CC(C)N(O)C(=O)c1c(Cl)cccc1[Si](C)(C)C` is 175 to 179 °C.
The figure for `C#CCn1c2ccccc2c2sccc(=O)c21` is 144 °C; for `CC(C)c1cccc(C(C)C)c1-n1nnn(C(C)C)c1=O` it is 60 to 62 °C.
Next, `Nc1nc2ccccc2c2c1ncn2CCOCCCc1cccnc1`: 125 to 128 °C; `CC1(OCCN(Cc2ccccc2)C(=O)C(F)(F)F)C=CC=C([N+](=O)[O-])C1NC(=O)C(F)(F)F` (stereo unspecified): 90 to 92.5 °C.
Turning to `CC(COc1ccc(CC2SC(=O)NC2=O)cc1)NCC(O)CN(C)c1ccccc1` (stereo unspecified), the melting point is 115 to 125 °C.
Next, `CCOC(=O)C1CC(=O)C(C(=O)CC)C(=O)C1` (stereo unspecified): 55 to 56 °C; `COC(=O)c1ccccc1S(=O)(=O)NC(=O)Nc1n[nH]c(SC)n1`: 147 to 153 °C.
Next, `NC(=O)C(N)c1c(Cl)cccc1Cl` (stereo unspecified): 166 °C; `O=C(CNc1ccccc1)Nc1ccc(Cl)c(Cl)c1`: 110 to 112 °C; `COc1ccc(NC(=O)Nc2cccc(C(F)(F)F)c2)c(O)n1`: 223 to 224 °C.
The figure for `CCOC(=O)C(C)=CNc1ccc(OCC)c(C)n1` is 118 to 122 °C; for `Cc1ccc(C)c(OCCCC(C)(C)C(=O)Nc2ccc(F)cc2F)c1` it is 79 to 80 °C; for `C#CCN(CC#C)S(=O)(=O)c1cccc2c(N(C)C)cccc12` it is 67 to 69 °C.
Molecule `Cn1nc(-c2cnc3[nH]cc(C(=O)NCC(C)(C)CO)c3n2)c2ccc(F)cc21` yielded a melting point of 291 to 293 °C.
Next, `Cc1cccc(COc2cccnc2NC(=S)Nc2ccc(Cl)cc2)c1F`: 184 to 187 °C; `CSc1ccc(-c2cnn(Cc3ccccc3)c(=O)c2Br)cc1`: 115 to 118 °C; `CNc1cc(Oc2ccc(NC(=O)Nc3ccc(-c4cccc(C)n4)c(C(F)(F)F)c3)cc2)ncn1`: 106 to 109 °C.
Molecule `CC(C(=O)O)c1ccc(Oc2ccc(Cl)cc2)cc1` (stereo unspecified) came in with a melting point of 105 to 107 °C.
Next, `OCC(Nc1ncnc2nc[nH]c12)c1ccccc1` (racemic): 130 to 138 °C; `CC1(C)C(=O)Nc2ccc(N)cc21`: 185 to 191 °C.
The figure for `C=Cc1cnc(C)c(OC(C)=O)c1CSC(C)=O` is 72 to 73 °C; for `COc1ccc(OC)c(-c2ccc(C)cc2)c1` it is 65 to 66 °C; for `CCOc1ccc(C(=O)CCC(=O)Nc2sc(-c3ccccc3)nc2-c2ccccc2)cc1OCC` it is 139 to 140 °C.
Next, `Cc1cc(O)c(SCc2ccccc2F)c(=O)o1`: 123 to 125 °C.
For the molecule `COc1cc(NC(=O)OCc2ccccc2)c(Cl)cc1-c1n[nH]c(=O)o1`, the melting point came out at 214 °C.
The figure for `CCS(=O)(=O)C(F)(F)C(O)(Cn1cncn1)c1ccc(F)cc1F` (stereo unspecified) is 117 to 118 °C.
Next, `Cc1c(Cl)cccc1S(=O)(=O)C[N+](=O)[O-]`: 78 to 79 °C.
The figure for `COC(=O)c1ccc(C=C(CBr)C(=O)OC(C)(C)C)cc1` is 78 °C.
